Assay results reported in patent US11590181B2, “Serpin production” (SOCIETE DES PRODUITS NESTLE S.A., priority 2017, dated 2023).
Where no end group is shown, it is not given here.

Columns and labels:
[1] = test system: serpin gene in B. longum NCC 2705; test: Sugar induction of serpin gene transcription in Biolector culture (qRT-PCR); type: cell-based; settings: 180 min sugar induction at 0.1%, relative to growth in only MRSc (FIG. 1)
Experimental: FIG. 1—Relative transcription level of serpin gene in B. longum NCC 2705 after 180 min sugar induction at a concentration of 0.1%. The bars indicate the relative amounts of serpin mRNAs for the specific samples comparing to that of growth in only MRSc. Black bars represent significant induction. The standard deviation was obtained from at least 2 different experiments (95% confidence interval).
BL NCC 2705 (B. longum strain CNCM I-2618) was grown in Biolector (growth conditions—anaerobic, 37° C., MRS+5 mM L-cysteine (MRSc).
48-well microtiter plate with pH sensor and dissolved oxygen (DO) sensor were used to culture the strains in Biolector (m2p-labs Aachen, Germany). It was continuously shaken to prevent bacteria aggregation and measurements were performed every 15 min. Plates were sealed with a gas permeable film and an anaerobe-chamber provides well-defined anaerobic gassing conditions. Fermentation parameters like biomass, pH and dissolved oxygen (DO) were monitored online throughout the entire growth using the BioLection HMI software. Growth parameters were:
The following carbohydrates were added to the cultures individually:
B. longum NCC 2705 was then further cultivated in the same conditions for 180 min, after which samples (500 μl) were collected and serpin mRNA levels measured. Every fermentation was performed at least in duplicate.
Total RNA isolation—500 μl of bacterial cultures were suspended in 1 ml of RNA protect bacteria reagent (Qiagen, Germany) and briefly centrifuged 10 min at 5000 g to harvest cells for total RNA extraction.
Total RNA was extracted using the RNeasy total RNA Mini kit (Qiagen, Germany, Ca. No. 74101) with protease K (Qiagen, Germany, Ca. No. 19131) and further treated using RNase-free DNase set (Qiagen, Germany, Ca. No. 79254). Total RNA was then eluted in 40 μl water. […]
mRNA fold expression analysis method—The Pfaffl method was used to calculate relative transcription changes (Pfaffl, 2012, Martin Filion, Hg., Quantitative real-time PCR in Applied Microbiology, 53-62) for which the equation is shown in Equation 1: […]

[2] = test system: BL NCC 2705 serpin; test: Lactose dose response in 10 L fermenter, serpin mRNA fold induction; type: cell-based, B. longum; settings: addition of 0.1% lactose, among 0.05%, 1%, 2% and 2.75%, glucose added to 5.5% total sugar, base 8 h culture (FIG. 2)
Experimental: FIG. 2—Serpin mRNA level of B. longum NCC 2705 fermented in different growth medium after 8 h, 12 h and 16 h. Different proportions of glucose was replaced by lactose and fructose as shown in the y-axis and the total amount of sugar percentage was kept stable at 5.5%. The values were calculated based on B. longum NCC 2705 growth after 8 h in 5.5% glucose. Black bars represent significant induction. In order to optimize the effect of lactose on induction of BL NCC 2705 serpin, a dose response was performed. The fermentation was performed in a 10 L Biostar B Plus fermenter with MRSc medium, supplemented with 0.05% cysteine as base, and different concentration of lactose (0.05%, 0.1%, 1%, 2% and 2.75%) were added to the medium. Glucose was supplemented to the different recipes to reach a final total amount of 5.5% of total sugar. Serpin mRNA fold induction was calculated using the 8 h MRSc grown BL NCC 2705 culture as a base (FIG. 2).

[3] = target: T1, transglutaminase 2 (TG2) (Homo sapiens, UniProt P21980); settings: in vitro; inhibits deamidation of the 33-mer gliadin peptide; cited from earlier work
T1 sequence (P21980 1-687): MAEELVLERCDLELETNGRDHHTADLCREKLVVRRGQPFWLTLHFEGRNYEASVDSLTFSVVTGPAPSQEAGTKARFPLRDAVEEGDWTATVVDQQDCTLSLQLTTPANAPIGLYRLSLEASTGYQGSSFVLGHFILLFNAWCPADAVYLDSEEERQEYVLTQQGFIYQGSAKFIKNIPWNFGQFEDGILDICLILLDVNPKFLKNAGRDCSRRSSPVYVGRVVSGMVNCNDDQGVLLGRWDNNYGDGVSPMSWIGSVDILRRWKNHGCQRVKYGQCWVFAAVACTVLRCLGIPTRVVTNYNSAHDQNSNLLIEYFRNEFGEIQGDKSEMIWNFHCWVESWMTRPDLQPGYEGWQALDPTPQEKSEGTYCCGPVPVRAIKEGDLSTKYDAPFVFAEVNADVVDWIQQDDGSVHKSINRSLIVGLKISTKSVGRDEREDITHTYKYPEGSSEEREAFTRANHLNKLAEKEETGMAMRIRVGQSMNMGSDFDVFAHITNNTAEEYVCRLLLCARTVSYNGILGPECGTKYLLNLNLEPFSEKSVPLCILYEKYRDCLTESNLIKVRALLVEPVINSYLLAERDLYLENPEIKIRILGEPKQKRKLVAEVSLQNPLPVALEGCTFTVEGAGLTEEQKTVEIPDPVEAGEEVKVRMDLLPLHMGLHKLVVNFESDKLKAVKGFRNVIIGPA

[4] = test system: mouse model of gluten sensitivity; settings: elafin delivered by recombinant Lactococcus lactis; cited from earlier work
[5] = test system: elastases and proteinase; settings: cited from earlier work

Compound	serpin mRNA levels of B. longum NCC 2705 [1]	serpin mRNA level at end of fermentation (16 h) [2]	inhibition of transglutaminase 2 (TG2) [3]	gluten-induced pathology and intestine inflammation [4]	inhibitory capacity against various forms of elastases and proteinase [5]
O=C(CO)[C@@H](O)[C@H](O)[C@H](O)CO [fructose, Fructose]	increase				
OC[C@H]1O[C@@H](O[C@H]2[C@H](O)[C@@H](O)C(O)O[C@@H]2CO)[C@H](O)[C@@H](O)[C@H]1O (stereo partly shown) [lactose, Lactose]	increase	highest			
OC[C@H]1O[C@H](OC[C@H]2O[C@H](O[C@]3(CO)O[C@H](CO)[C@@H](O)[C@@H]3O)[C@H](O)[C@@H](O)[C@@H]2O)[C@H](O)[C@@H](O)[C@H]1O [raffinose, Raffinose]	increase				
elafin: human serine protease inhibitor (AQEPVKGPVSTKPGSCPIILIRCAMLNPPNRCLKDTDCPGIKKCCEGSCGMACFVPQ; ends and bridges not checked; cysteine pairing not given here; UniProt P19957 61-117, looked up)			moderately inhibits	reduce gluten-induced pathology and normalise intestine inflammation	potent inhibitory capacity
